The record followed here is US6211439A, “Herbicide resistance in plants” (MGI Pharma, Inc, priority 1995, dated 2001).

Converted amounts (≈) assume the structure as drawn.

The test system of assay [1] is Callus tissue from line UV18. The assay can be described thus: Callus growth inhibition, line UV18. In kind it is cell-based, maize. The settings on record: for Callus Growth Fold Increase in Tolerance: line UV18 vs control tissue, based on herbicide amount giving 50% reduction in growth rate. As to the method:
The UV18 cell line was first observed after 25 weeks of selection comprising 9 subculture intervals. The tissue in the selection procedure had been exposed to 0.1 mg per liter 214 for four subculture intervals followed by exposure to 0.3 mg per liter 214 for four subculture intervals. UV18 was identified during the ninth subculture as a rapidly growing sector of tissue with good morphology.
Callus tissue from line QJ22 was tested also with the compound 567. The numbers represent the fold increase in herbicide concentration that can be tolerated by each of the cell lines as compared to control tissue. The values were calculated based on the amount of herbicide that gave a 50% reduction in growth rate.

The test system of the next assay is XA17 seedlings. In words: Seedling assay, progeny of XA17 regenerated plant x B73 (heterozygous). It is filed as in vivo, maize. An excerpt:
An XA17 regenerated plant with a normal ear was pollinated with pollen obtained from a herbicide sensitive inbred B73 plant grown from seed. Seeds were obtained and harvested approximately forty days post pollination.
Twenty control seeds and ten XA17 seeds were surface sterilized with 2.6% sodium hypochlorite for twenty minutes and then washed with sterile distilled water. The seed was imbibed overnight in sterile water containing a small quantity of the fungicide, captan (N-trichloromethylthio-4-cyclohexene-1,2-dicarboximide). The mature embryos were then excised from the seed and plated scutellum side down on solid MS media without 2,4-D. Ten control seeds were plated on media containing no 214 and ten were plated in the presence of 6×10^-8M 214 which had been incorporated into the medium after autoclaving but before gelling. All ten XA17 seeds were plated in the presence of 6×10^-8 M 214. Seedlings were evaluated seven days after plating.

For assay [2], the system named is Unselected culture tissue. The assay can be described thus: Herbicide inhibition of plant regeneration, unselected culture tissue. It is filed as cell-based, maize. The protocol:
Eighty to 90 mg quantities of maize callus tissue were transferred to embryo and shoot development (regeneration) media in petri plates. The media consisted of MS basal media supplemented with 0.1 mg per liter 2,4-D and 1×10^-7 M abscissic acid. 0.25% Gelrite (Kelco Co., San Diego, Calif.) was used as a solid support in place of agar. The tissue was incubated in the dark at 26° C. (approximately 300 footcandles,soft white fluorescent) on a cycle of 14 hours light, 10 hours dark. Developing plants reaching a size of 1-3 cm were then transferred to flasks or jars, containing MS media with no supplementation, for further development. When plants reached the two to three leaf stage, they were moved to pots containing vermiculite and exposed to light at 2600 footcandles. These plants were watered with 20% v/v MS media for one week and then with water until they grew stably. The plants were then transferred to soil for growth to maturity.
The effect of various concentrations of 214 on plant regeneration embryo and shoot development were evaluated. Unselected culture tissue was transferred to regeneration media containing various concentrations of 214 ranging from 0.01 to 0.3 mg per liter. The tissue was then put through the first three weeks of the plant regeneration protocol described supra. The culture was scored after this time for the production of well defined shoots.

For a further assay, the system named is line XA17 tissue. In words: Callus growth inhibition, resistant line XA17. In kind it is cell-based, maize. As to conditions: Zea mays, 336 h, read-out: level giving a 50% growth inhibition. As to the method: Therefore the effects of 214 were determined on callus growth. Quantities of tissue averaging 90 mg in size were transferred to nutrient agar maintenance media containing concentrations of 214 ranging from 0.003 to 3 mg per liter. Eight tissue pieces were placed on each plate with three plates per herbicide concentration. After 14 days growth, the tissue was weighed again.
Initially, the maximum level of 214 in which line XA17 would grow stably was determined. Stock tissue which had been maintained in the presence of 0.1 mg per liter 214 was transferred to media containing 214 levels ranging up to 30 mg per liter. Tissue was maintained for several subculture intervals and the growth rate evaluated.

The next assay concerns Corn Suspension Cultures. In words: Free amino acid levels in suspension cultures of the embryogenic cell line used for selection. In kind it is cell-based, maize. The settings on record: 1 × 10^-5 M 997. As to the method:
Suspension culture cells were treated for 3.5 hours or 48 hours with 1×10^-5 M 997. Cells were removed from suspension by filtration and 1 gram fresh weight quantities were ground with sand with a mortar and pestle in 1 ml 5% TCA. Four ml of 5% TCA were added and the extract centrifuged at 10,000×g for 10 minutes. The pellet was reextracted and the supernatants combined and subjected to cation exchange chromatography. The samples were applied to Bond Elut SCX columns (Analytichem International Inc., Harbor City, Calif.) which had been equilibrated with 5% TCA. Following sample application, the columns were washed with 5 ml distilled, deionized water, and the amino acids were eluted with 2 ml aliquots of 5% v/v triethylamine. The aliquots were combined (6 ml), lyophilized, and subjected to amino acid analysis with a Kontron Liquemat III amino acid analyzer (Hesber, Middlesex TW5 OQU, England).
The embryogenic cell line used in the selection for herbicide resistant cells (see Section 6.2.1) was different from the cell line used in the characterization of the site of action of 997 described in Section 6.1. Consequently, the effects of 997 on pool sizes of free amino acids in the cell line used in the selection procedure was also studied. The protocol described in Section 6.1.4 was followed for these studies.

Another assay relates to maize seedlings. The assay can be described thus: Germination and seedling growth from excised mature maize embryos. It is filed as in vivo. As to conditions: concentration in the media, shoot growth after seven days. As to the method: The herbicidal effects of 997 on maize seedlings were determined by evaluating germination and seedling growth from excised, mature maize embryos (Green, 1974, Crop Sci. 14: 54-58). Seeds were sterilized for 10 minutes in 0.5% hypochlorite and then imbibed for 24 hours in sterile, distilled water. Mature embryos were aseptically excised and plated on solid MS media […] containing various concentrations of 997 and no 2,4-D. Embryos were placed with their shoot axis away from the media. Shoot growth was quantitated after seven days.

Setting [3] is: 6×10^-8 M 214, seven days after plating.
The mark [4] stands for this setting: average ± standard deviation of three replicates.

As to `CC(C)C1(C)NC(c2nc3ccccc3cc2C(=O)O)=NC1=O` (stereo not drawn) [compound 214, 2-(5-isopropyl-5-methyl-4-oxo-2-imidazolin-2-yl)3-quinolinecarboxylic acid], the “growth of UV18 tissue in presence of herbicide” value in assay [1] (0.3 mg per liter 214, vs control tissue in the absence of herbicide) is listed as “grew as rapidly”. For the same compound, in assay [1], the “Callus Growth Fold Increase in Tolerance” value stood at 100 fold. Moreover, in the assay with XA17 seedlings (setting [3]), the “root length of resistant seedlings” value is listed as 6-7 cm and the “root length of sensitive seedlings” value is 0-1 cm. The “level of tolerance on an herbicide concentration basis” value in the assay with XA17 seedlings (seedlings heterozygous for the tolerance trait) was “at least 5 fold”. Besides, in assay [2] (0.3 mg per liter 214), the “somatic embryo development and shoot formation” value is on record as “completely inhibited”. Besides, in assay [2] (Zea mays, 504 h, based on the number of shoots formed, first three weeks of regeneration protocol, read-out: concentration inhibiting plant regeneration 50%), the IC50 was 0.03 to 0.1 µg/mL (≈ 0.0964 to 0.321 µM). Besides, the IC50 in the assay on line XA17 tissue came out at 30 µg/mL (≈ 96.4 µM).

For `CC(C)C1(C)NC(c2ncccc2C(=O)O)=NC1=O` (stereo not drawn) [compound 997, 2-(5-isopropyl-5-methyl-4-oxo-2-imidazolin-2-yl)nicotinic acid], the “Callus Growth Fold Increase in Tolerance” value in assay [1] worked out at 100 fold. In addition, in the assay on Corn Suspension Cultures, the “ala B/A (treated/control)” value is reported as 2.6, the “arg B/A (treated/control)” value came out at 1.4, the “asp B/A (treated/control)” value is on record as 2.2 and the “glu B/A (treated/control)” value was 3.8. Moreover, in the assay on Corn Suspension Cultures, the “gly B/A (treated/control)” value is on record as 13.0, the “ile B/A (treated/control)” value turned out to be 2.4, the “leu B/A (treated/control)” value is listed as 0.52 and the “lys B/A (treated/control)” value came out at 1.8. Moreover, in the assay on Corn Suspension Cultures, the “met B/A (treated/control)” value is given as 3.8, the “phe B/A (treated/control)” value was determined as 6.6, the “ser B/A (treated/control)” value was 8.7 and the “thr B/A (treated/control)” value was 6.4. In the assay on Corn Suspension Cultures, the “tyr B/A (treated/control)” value was 2.1 and the “val B/A (treated/control)” value worked out at 0.27. Besides, in the assay on Corn Suspension Cultures (setting [4]), the “Free ala level (B)” value is given as 5750 ± 1100 n mol per g fresh wt tissue, the “Free arg level (B)” value was 70 ± 60 n mol per g fresh wt tissue, the “Free asp level (B)” value is on record as 5700 ± 650 n mol per g fresh wt tissue and the “Free glu level (B)” value is given as 8550 ± 210 n mol per g fresh wt tissue. Besides, in the assay with Corn Suspension Cultures (setting [4]), the “Free gly level (B)” value is reported as 3130 ± 230 n mol per g fresh wt tissue, the “Free ile level (B)” value is 220 ± 10 n mol per g fresh wt tissue, the “Free leu level (B)” value is given as 120 ± 10 n mol per g fresh wt tissue and the “Free lys level (B)” value is on record as 230 ± 140 n mol per g fresh wt tissue. In the assay on Corn Suspension Cultures (setting [4]), the “Free met level (B)” value was 190 ± 80 n mol per g fresh wt tissue, the “Free phe level (B)” value is recorded as 790 ± 90 n mol per g fresh wt tissue, the “Free ser level (B)” value is recorded as 20000 ± 2000 n mol per g fresh wt tissue and the “Free thr level (B)” value was 2960 ± 270 n mol per g fresh wt tissue. In addition, in the assay with Corn Suspension Cultures (setting [4]), the “Free tyr level (B)” value is listed as 410 ± 80 n mol per g fresh wt tissue and the “Free val level (B)” value is on record as 140 ± 10 n mol per g fresh wt tissue. In the assay with line XA17 tissue, the IC50 is more than 30 µg/mL. Also, the “herbicide concentration giving 50% growth inhibition” value with maize seedlings is on record as 1 to 3×10^-8 M.
